Reference: the NIST ThermoML archive (doi:10.1007/s10765-010-0766-0)
Several values for one entry are separate records, joined by “and”; a condition that tells them apart may be missing. Identical values can stand only once. Numbers after ± are expanded uncertainties.

Conditions: Liquid, Pycnometric method

FC(F)C(F)(F)OCC(F)(F)F [2,2,2-trifluoroethyl 1,1,2,2-tetrafluoroethyl ether] showed a mass density (342.15 K, 16809 kPa) of 1418.3 ± 2.3 kg/m3, a mass density (342.15 K, 16812 kPa) of 1418.3 ± 2.3 kg/m3 and a mass density (343.15 K, 17505 kPa) of 1418.1 ± 2.3 kg/m3. For the same molecule, the mass density (343.15 K, 17508 kPa) was 1418.1 ± 2.3 kg/m3, the mass density (344.15 K, 18201 kPa) was 1418 ± 2.3 kg/m3 and the mass density (344.15 K, 18203 kPa) was 1418 ± 2.3 kg/m3. The mass density (345.15 K, 18896 kPa) was 1417.8 ± 2.3 kg/m3, the mass density (345.15 K, 18898 kPa) was 1417.8 ± 2.3 kg/m3 and the mass density (346.15 K, 19590 kPa) was 1417.7 ± 2.3 kg/m3. For the same molecule, the mass density (346.15 K, 19592 kPa) was 1417.7 ± 2.3 kg/m3, the mass density (347.15 K, 20282 kPa) was 1417.5 ± 2.3 kg/m3 and the mass density (347.15 K, 20287 kPa) was 1417.6 ± 2.3 kg/m3. For the same molecule, the mass density (348.15 K, 20974 kPa) was 1417.4 ± 2.3 kg/m3, the mass density (348.15 K, 20978 kPa) was 1417.4 ± 2.3 kg/m3 and the mass density (349.15 K, 21666 kPa) was 1417.3 ± 2.3 kg/m3. The mass density (349.15 K, 21671 kPa) was 1417.3 ± 2.3 kg/m3, the mass density (350.15 K, 22357 kPa) was 1417.1 ± 2.3 kg/m3 and the mass density (350.15 K, 22360 kPa) was 1417.2 ± 2.3 kg/m3. It also gave a mass density (351.15 K, 23047 kPa) of 1417 ± 2.3 kg/m3, a mass density (351.15 K, 23050 kPa) of 1417 ± 2.3 kg/m3 and a mass density (352.15 K, 23735 kPa) of 1416.9 ± 2.3 kg/m3. It also gave a mass density (352.15 K, 23739 kPa) of 1416.9 ± 2.3 kg/m3, a mass density (353.15 K, 24423 kPa) of 1416.8 ± 2.3 kg/m3 and a mass density (353.15 K, 24426 kPa) of 1416.8 ± 2.3 kg/m3. For the same molecule, the mass density (354.15 K, 25110 kPa) was 1416.6 ± 2.3 kg/m3, the mass density (354.15 K, 25114 kPa) was 1416.7 ± 2.3 kg/m3 and the mass density (355.15 K, 25797 kPa) was 1416.5 ± 2.3 kg/m3. It also gave a mass density (355.15 K, 25801 kPa) of 1416.5 ± 2.3 kg/m3, a mass density (356.15 K, 26482 kPa) of 1416.4 ± 2.3 kg/m3 and a mass density (356.15 K, 26486 kPa) of 1416.4 ± 2.3 kg/m3. It also gave a mass density (357.15 K, 27166 kPa) of 1416.3 ± 2.3 kg/m3, a mass density (357.15 K, 27171 kPa) of 1416.3 ± 2.3 kg/m3 and a mass density (358.15 K, 27851 kPa) of 1416.2 ± 2.3 kg/m3. It also gave a mass density (358.15 K, 27855 kPa) of 1416.2 ± 2.3 kg/m3, a mass density (359.15 K, 5632 kPa) of 1334.4 ± 2.2 kg/m3 and a mass density (359.15 K, 5637 kPa) of 1334.4 ± 2.2 kg/m3. The mass density (359.15 K, 28535 kPa) was 1416.1 ± 2.3 kg/m3, the mass density (359.15 K, 28538 kPa) was 1416.1 ± 2.3 kg/m3 and the mass density (360.15 K, 6174 kPa) was 1334.2 ± 2.2 kg/m3. The mass density (360.15 K, 6180 kPa) was 1334.2 ± 2.2 kg/m3, the mass density (360.15 K, 29217 kPa) was 1415.9 ± 2.3 kg/m3 and the mass density (360.15 K, 29220 kPa) was 1416 ± 2.3 kg/m3. The mass density (361.15 K, 6718 kPa) was 1334.1 ± 2.2 kg/m3, the mass density (361.15 K, 6724 kPa) was 1334.1 ± 2.2 kg/m3 and the mass density (361.15 K, 29899 kPa) was 1415.8 ± 2.3 kg/m3. For the same molecule, the mass density (361.15 K, 29902 kPa) was 1415.9 ± 2.3 kg/m3, the mass density (362.15 K, 7261 kPa) was 1333.9 ± 2.2 kg/m3 and the mass density (362.15 K, 7266 kPa) was 1333.9 ± 2.2 kg/m3. The mass density (363.15 K, 7803 kPa) was 1333.8 ± 2.2 kg/m3, the mass density (363.15 K, 7809 kPa) was 1333.8 ± 2.2 kg/m3 and the mass density (364.15 K, 8346 kPa) was 1333.6 ± 2.2 kg/m3. For the same molecule, the mass density (364.15 K, 8350 kPa) was 1333.6 ± 2.2 kg/m3, the mass density (365.15 K, 8888 kPa) was 1333.5 ± 2.2 kg/m3 and the mass density (365.15 K, 8892 kPa) was 1333.5 ± 2.2 kg/m3. For the same molecule, the mass density (366.15 K, 9430 kPa) was 1333.3 ± 2.2 kg/m3, the mass density (366.15 K, 9434 kPa) was 1333.4 ± 2.2 kg/m3 and the mass density (367.15 K, 9971 kPa) was 1333.2 ± 2.2 kg/m3. The mass density (367.15 K, 9976 kPa) was 1333.2 ± 2.2 kg/m3, the mass density (368.15 K, 10512 kPa) was 1333.1 ± 2.2 kg/m3 and the mass density (368.15 K, 10516 kPa) was 1333.1 ± 2.2 kg/m3. For the same molecule, the mass density (369.15 K, 11053 kPa) was 1332.9 ± 2.2 kg/m3, the mass density (369.15 K, 11057 kPa) was 1332.9 ± 2.2 kg/m3 and the mass density (370.15 K, 11593 kPa) was 1332.8 ± 2.2 kg/m3. The mass density (370.15 K, 11598 kPa) was 1332.8 ± 2.2 kg/m3, the mass density (371.15 K, 12133 kPa) was 1332.7 ± 2.2 kg/m3 and the mass density (371.15 K, 12137 kPa) was 1332.7 ± 2.2 kg/m3. For the same molecule, the mass density (372.15 K, 12673 kPa) was 1332.5 ± 2.2 kg/m3, the mass density (372.15 K, 12677 kPa) was 1332.6 ± 2.2 kg/m3 and the mass density (373.15 K, 13212 kPa) was 1332.4 ± 2.2 kg/m3. It also gave a mass density (373.15 K, 13216 kPa) of 1332.4 ± 2.2 kg/m3, a mass density (374.15 K, 13752 kPa) of 1332.3 ± 2.2 kg/m3 and a mass density (374.15 K, 13756 kPa) of 1332.3 ± 2.2 kg/m3. It also gave a mass density (375.15 K, 14290 kPa) of 1332.2 ± 2.2 kg/m3, a mass density (375.15 K, 14294 kPa) of 1332.2 ± 2.2 kg/m3 and a mass density (376.15 K, 14828 kPa) of 1332 ± 2.2 kg/m3. For the same molecule, the mass density (376.15 K, 14831 kPa) was 1332 ± 2.2 kg/m3, the mass density (377.15 K, 15366 kPa) was 1331.9 ± 2.2 kg/m3 and the mass density (377.15 K, 15369 kPa) was 1331.9 ± 2.2 kg/m3. For the same molecule, the mass density (378.15 K, 15904 kPa) was 1331.8 ± 2.2 kg/m3, the mass density (378.15 K, 15906 kPa) was 1331.8 ± 2.2 kg/m3 and the mass density (379.15 K, 16441 kPa) was 1331.7 ± 2.2 kg/m3. For the same molecule, the mass density (379.15 K, 16443 kPa) was 1331.7 ± 2.2 kg/m3, the mass density (380.15 K, 16977 kPa) was 1331.5 ± 2.2 kg/m3 and the mass density (380.15 K, 16980 kPa) was 1331.5 ± 2.2 kg/m3. For the same molecule, the mass density (381.15 K, 17514 kPa) was 1331.4 ± 2.2 kg/m3, the mass density (381.15 K, 17515 kPa) was 1331.4 ± 2.2 kg/m3 and the mass density (382.15 K, 18050 kPa) was 1331.3 ± 2.2 kg/m3. The mass density (382.15 K, 18051 kPa) was 1331.3 ± 2.2 kg/m3, the mass density (383.15 K, 18585 kPa) was 1331.2 ± 2.2 kg/m3 and the mass density (383.15 K, 18586 kPa) was 1331.2 ± 2.2 kg/m3. For the same molecule, the mass density (384.15 K, 19120 kPa) was 1331.1 ± 2.2 kg/m3, the mass density (384.15 K, 19121 kPa) was 1331.1 ± 2.2 kg/m3 and the mass density (385.15 K, 19655 kPa) was 1330.9 ± 2.2 kg/m3. The mass density (385.15 K, 19656 kPa) was 1330.9 ± 2.2 kg/m3, the mass density (386.15 K, 20189 kPa) was 1330.8 ± 2.2 kg/m3 and the mass density (387.15 K, 20723 kPa) was 1330.7 ± 2.2 kg/m3. The mass density (388.15 K, 21256 kPa) was 1330.6 ± 2.2 kg/m3, the mass density (389.15 K, 21789 kPa) was 1330.5 ± 2.2 kg/m3 and the mass density (390.15 K, 22322 kPa) was 1330.4 ± 2.2 kg/m3. It also gave a mass density (391.15 K, 22854 kPa) of 1330.3 ± 2.2 kg/m3, a mass density (391.15 K, 22855 kPa) of 1330.3 ± 2.2 kg/m3 and a mass density (392.15 K, 23385 kPa) of 1330.2 ± 2.2 kg/m3. For the same molecule, the mass density (392.15 K, 23386 kPa) was 1330.2 ± 2.2 kg/m3, the mass density (393.15 K, 23917 kPa) was 1330 ± 2.2 kg/m3 and 1330.1 ± 2.2 kg/m3 and the mass density (394.15 K, 24448 kPa) was 1329.9 ± 2.2 kg/m3. For the same molecule, the mass density (395.15 K, 24978 kPa) was 1329.8 ± 2.2 kg/m3, the mass density (396.15 K, 25507 kPa) was 1329.7 ± 2.2 kg/m3 and the mass density (396.15 K, 25508 kPa) was 1329.7 ± 2.2 kg/m3. It also gave a mass density (397.15 K, 26037 kPa) of 1329.6 ± 2.2 kg/m3, a mass density (397.15 K, 26038 kPa) of 1329.6 ± 2.2 kg/m3 and a mass density (398.15 K, 26566 kPa) of 1329.5 ± 2.2 kg/m3. The mass density (398.15 K, 26567 kPa) was 1329.5 ± 2.2 kg/m3, the mass density (399.15 K, 27094 kPa) was 1329.4 ± 2.2 kg/m3 and the mass density (399.15 K, 27096 kPa) was 1329.4 ± 2.2 kg/m3. For the same molecule, the mass density (400.15 K, 27622 kPa) was 1329.3 ± 2.2 kg/m3, the mass density (400.15 K, 27623 kPa) was 1329.3 ± 2.2 kg/m3 and the mass density (401.15 K, 28150 kPa) was 1329.2 ± 2.2 kg/m3. For the same molecule, the mass density (401.15 K, 28151 kPa) was 1329.2 ± 2.2 kg/m3, the mass density (402.15 K, 28677 kPa) was 1329.1 ± 2.2 kg/m3 and the mass density (402.15 K, 28678 kPa) was 1329.2 ± 2.2 kg/m3. It also gave a mass density (403.15 K, 29204 kPa) of 1329 ± 2.2 kg/m3, a mass density (403.15 K, 29205 kPa) of 1329.1 ± 2.2 kg/m3 and a mass density (404.15 K, 29730 kPa) of 1329 ± 2.2 kg/m3. For the same molecule, the mass density (404.15 K, 29732 kPa) was 1329 ± 2.2 kg/m3.
